{"source": "paper PMC8597734", "about": "(Antimicrobial Agents and Chemotherapy, 2021)", "format_in_all_cases": "cell-based, Mycobacterium abscessus", "key": {"[1]": {"tested_on": "M. abscessus subsp. bolletii CCUG 50184T", "assay": "microbe, parasite or virus in culture", "conditions": "Mycobacteroides abscessus, 72 h"}, "[2]": {"tested_on": "M. abscessus Bamboo biofilms", "assay": "Biofilm growth inhibition assay (biofilm MIC and MBC)", "method": "The biofilm growth inhibition assay was performed as previously described ([52]). Innovotech MBEC 96-well Biofilm Assay Plates (Innovotech 19111, Edmonton, AB, Alberta, Canada) were used, and the supplier’s manual was followed with minor modifications. Midlog phase M. abscessus Bamboo precultures (OD600 = 0.4–0.6) were spun down at 3,200 × g for 10 min at 25°C and washed with 7H9 medium without Tween 80 (7H9nt). Bacteria were resuspended into 25 ml 7H9nt to an OD600 = 0.0125 (1.0 × 10^6 CFU/ml). 150 μl of bacteria suspension was dispensed into each well of MBEC multititer plates and the polystyrene protrusions (pegs) of the MBEC lid were inserted into the culture-containing wells for 24 h at 37°C on an orbital shaker at 110 rpm to allow attachment of the bacteria to the pegs and initiation of biofilm growth. The lids with the pegs (now with 1-day-old biofilms) were transferred to new MBEC multititer plates containing 150 μl of fresh 7H9nt medium per well without bacteria (0 h time point). After that, the lids with biofilm-laden pegs were transferred once a day to a new multititer plate containing fresh 7H9nt medium. To measure growth of the biofilm formed on the peg, the pegs were washed in 200 μl of 7H9nt medium before they were aseptically removed and placed in 1.7 ml microcentrifuge tubes (VWR 87003-294, Rador, PA, United States) containing 500 μl PBS/Tween 80. The microcentrifuge tubes were vigorously vortexed at 2,000 rpm for 90 s at 25°C to detach the bacteria from the pegs before samples were serially diluted and plated for the determination of CFU/peg. […] The average drug-free biofilm growth was calculated by subtracting the average 24 h CFU/peg value from the average 72 h CFU/peg value for the untreated control pegs. The biofilm MIC was defined as the lowest drug concentration that reduced the CFU/peg by 90% relative to the average drug-free biofilm growth."}, "[3]": {"tested_on": "nutrient-starved, nonreplicating M. abscessus Bamboo", "assay": "MBC determination under nutrient-starved conditions", "conditions": "48 h drug exposure", "method": "The determination of drug bactericidal activity against nutrient-starved M. abscessus cultures was performed as previously described ([52]). […] Washed culture was then diluted with PBS/Tyloxapol to OD600 = 0.2 (1.8 × 10^7 CFU/ml). […] Appropriate concentrations of drugs up to 100 μM were added to the tubes prior to incubation at 37°C on a tilted rack in an orbital shaker at 220 rpm."}}}
{"smiles": "COc1cnc2ccc(=O)n(CCN3CCC(NCc4cnc(CO)c(Cl)c4)CC3)c2c1", "note": "[EC/11716]", "values": [{"measurement": "MIC", "setting": "[1]", "result": 4.1, "unit": "µM"}, {"measurement": "increase of biofilm MBC relative to planktonic MBC", "setting": "[2]; M. abscessus Bamboo biofilm vs planktonic bacteria", "result": 2, "unit": "fold"}, {"measurement": "MBC", "setting": "[2]; Mycobacteroides abscessus, Biofilm, M. abscessus Bamboo, 10-fold reduction of CFU/peg vs 24 h", "result": 6.3, "unit": "µM"}, {"measurement": "MIC", "setting": "[2]; Mycobacteroides abscessus, Biofilm, M. abscessus Bamboo, 90% reduction of CFU/peg relative to drug-free biofilm growth, 48 h", "result": 0.78, "unit": "µM"}, {"measurement": "MBC", "setting": "[3]", "result": ">100", "unit": "µM"}, {"measurement": "MBC", "setting": "[3]; Mycobacteroides abscessus", "result": "> 100", "unit": "µM"}]}
